Numbered stars: 1 amine (or outer) side, 2 acyl side, 3 side chain; on linkers, the order of the positions; unused ones are H or OH. Square brackets hold non-standard residues; d marks the D form. Peptide text beside a SMILES is read from it. * marks the point of attachment. X1 = CCCC(N[*:1])C(=O)C(=O)[*:2]; Tic = O=C(O)[C@@H]1Cc2ccccc2CN1; Chg = N[C@H](C(=O)O)C1CCCCC1; Phg = N[C@H](C(=O)O)c1ccccc1; Boc = CC(C)(C)OC(=O)*
Target: Genome polyprotein (Hepatitis C virus genotype 1a (isolate H77), UniProt P27958)
Sequence (P27958 1027-1657 limits assumed): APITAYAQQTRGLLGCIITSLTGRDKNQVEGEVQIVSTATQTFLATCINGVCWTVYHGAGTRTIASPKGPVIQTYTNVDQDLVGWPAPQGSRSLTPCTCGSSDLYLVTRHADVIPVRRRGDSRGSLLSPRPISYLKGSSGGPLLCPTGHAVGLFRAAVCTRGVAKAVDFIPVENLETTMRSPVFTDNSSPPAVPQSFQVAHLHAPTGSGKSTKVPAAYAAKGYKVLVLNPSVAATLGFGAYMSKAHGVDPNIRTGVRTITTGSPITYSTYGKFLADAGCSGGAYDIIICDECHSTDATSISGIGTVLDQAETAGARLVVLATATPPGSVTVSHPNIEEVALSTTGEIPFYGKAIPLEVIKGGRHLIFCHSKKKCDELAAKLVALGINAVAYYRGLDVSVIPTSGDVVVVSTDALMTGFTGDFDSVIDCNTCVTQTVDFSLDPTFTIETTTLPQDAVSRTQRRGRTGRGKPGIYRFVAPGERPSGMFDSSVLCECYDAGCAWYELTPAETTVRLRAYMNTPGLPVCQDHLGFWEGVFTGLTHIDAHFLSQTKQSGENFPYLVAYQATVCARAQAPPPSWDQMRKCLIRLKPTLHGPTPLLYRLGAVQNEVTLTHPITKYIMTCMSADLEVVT
Test: Continuous Spectrophotometric Assay
Settings: pH 6.5; 30 °C
Method: Proteolytic cleavage of the ester linkage between the Nva (L-norvaline) and the chromophore (PAP) was monitored for change in absorbance at 370 nm. Initial velocities were determined using linear regression and kinetic constants were obtained by fitting the data to the Michaelis-Menten equation.

`CCCC(NC(=O)[C@@H]1Cc2ccccc2CN1C(=O)[C@@H](NC(=O)OC(C)(C)C)C1CCCCC1)C(=O)C(=O)NCC(=O)N[C@H](C(=O)N(C)C)c1ccccc1` (stereo partly drawn) [tert-butyl N-[(1S)-1-cyclohexyl-2-[(3S)-3-({1-[({[(S)-(dimethylcarbamoyl)(phenyl)methyl]carbamoyl}methyl)carbamoyl]-1-oxopentan-2-yl}carbamoyl)-1,2,3,4-tetrahydroisoquinolin-2-yl]-2-oxoethyl]carbamate] (Boc-[Chg][Tic][X1]G[Phg]-NMe2) showed a Ki of 1200 nM.

Reference: BindingDB's records for doi:10.1021/jm050520a (Schering-Plough Research Institute, 2006)
